# Read-outs that look alike come from different tables or passages of the source. Residues, ends and D or L forms follow the SMILES beside them.
# Test system: collagen-induced arthritis
# Type: in vivo, Mice
# Procedure: Mice (DBA/1, 10-12 weeks old, Jackson Laboratories) were randomly assigned to one of 3 groups of […]. CT-112 (SEQ. ID NO: 1) was prepared for injection by dissolving in sterile PBS. CT-112 (SEQ. ID NO: 1) was administered daily according to the following schedule: • a) Control animals (0.1 ml of sterile PBS) (7 mice); • b) Low dose CT-112 (0.1 ml sterile PBS containing 0.25 mg CT-112 at 10 mg/kg) (8 mice); and • c) High dose CT-112 (0.1 ml sterile PBS containing 2.5 mg of CT-112 at 100 mg/kg) (8 mice). Three days after initial dosing with CT-112 (SEQ. ID NO: 1), all mice were injected intradermally at the base of the tail with 100 µg of bovine type-II collagen in Freund's complete adjuvant. Mice were monitored daily for the onset of disease, and weighed twice weekly with overall health status noted. Arthritis-affected animals were clinically assessed 5 times per week until 10 weeks post-immunization. Paw measurements were taken 3 times per week. Mice lacking signs of arthritis 10 weeks post-immunization were considered disease-free. All mice were pre-bled prior to the start of the trial, subsequently again at 2 and 4 weeks post-immunization, again at the onset of CIA, and finally at the termination of the study. Sera were separated and stored at -80°C. ELISA assays were performed to determine anti-collagen antibody concentrations. Spleen and lymph nodes were removed at sacrifice, and single cell suspensions prepared therefrom. Mitogen responses to Con A and LPS, as well as antigen-specific responses to type-II collagen, were determined. Appropriate statistical comparisons (Chi square, Student's T-test and non-parametric median comparisons) were performed using SPSS/PC software to assess the influence of CT-112 (SEQ. ID NO: 1) at both low and high doses on the incidence, onset, severity and progression of collagen-induced arthritis, the antibody response to collagen, T-cell and B-cell mitogen responses, and T-cell specific responses to type-II collagen.
smiles,measurement,setting,value
"CC(C)[C@H](NC(=O)[C@H](CCC(N)=O)NC(=O)[C@H](CO)NC(=O)[C@@H](NC(=O)[C@@H](N)[C@@H](C)O)[C@@H](C)O)C(=O)N[C@@H](CCCNC(=N)N)C(=O)N1CCC[C@H]1C(=O)N[C@@H](CCCNC(=N)N)C(=O)O [CT-112, Thr-Thr-Ser-Gln-Val-Arg-Pro-Arg] (H-TTSQVRPR-OH)",Antibody reduction (anti-collagen antibody titer in mouse serum),"4 wks post-immunization, high dose group, p=0.028",statistically significant
same,effects on synovitis and pannus,both high and low doses,not significant
same,disease-induced joint erosion (histopathology),"both high and low doses, FIGURE 13",reducing
same,disease-induced loss of joint architecture (histopathology),"both high and low doses, p ≤ 0.05, FIGURE 13",significantly reducing
same,Spleen cell response to Con A and to LPS,cells from treated mice,neither immunosuppression nor immunoactivation
same,final incidence of CIA,"high dose, 100 mg/kg daily",50%
same,onset of arthritis,"low (10 mg/kg) and high (100 mg/kg) daily doses, compared to control mice",somewhat retarded
same,antibody titers at the conclusion of the trial,low dose group vs control mice,significantly higher
same,final incidence of CIA,"low dose, 10 mg/kg daily",62.5%
same,involved paws characterized as in remission at the conclusion of the trial,"low dose, 10 mg/kg daily",25%
same,progression of arthritis to paws,"low dose, 10 mg/kg daily, p=0.035 vs control",significantly fewer paws
same,Maximum paw swelling,"mouse, in vivo",not influenced
same,weight gain,"mouse, in vivo",gained weight at the same rate
same,Cellular responses to mitogens and antigen (type-II collagen) in lymph node cells,treated mice vs control animals,similar

# Reference: patent EP0714404B1, “ANTI-INFLAMMATORY PEPTIDES” (CURATIVE TECHNOLOGIES, INC., priority 1993, dated 1995)
